The assay has as its system Rats. The experiment in a line: Biological assay of calcitonin analogs in vivo: reduction of serum calcium concentration vs synthetic salmon calcitonin standard, 2×2 parallel line assay. The conditions noted are these: standard used in the assay; independently determined. The method, then: Biological Assay Of Calcitonin Analogs In Vivo
The biological potency of des-4-leucine-salmon calcitonin was determined by comparing the reduction of serum calcium concentration which followed administration by graded doses of des-Leu^4 -SCT and synthetic salmon calcitonin standard. Rats were divided into four groups of seven animals, and each group was assigned at random to a dose of standard or test solution. Low and high doses were chosen from the linear portion of the dose-response curve. For the salmon calcitonin standard, the values were 0.7 and 2.1 ng. peptide/100 g. body weight (BW). This dose approximates 3 and […]/100 g. BW. Peptides were given by subcutaneous injection (0.2 ml/100 g. BW) and blood was withdrawn 1 hour later for serum calcium determination. Sera are processed and analyzed within two hours of collection. […]. Results were analyzed by a 2×2 parallel line assay [Gaddum, J. H., J. Pharm. Pharmacol., 6, 345 (1953)]. The standard salmon calcitonin used was independently determined to contain greater than 4,000 IU/mg. des-Leu^4 -SCT assayed at 5400 IU/mg.

Molecules are shown by their SMILES.

For `CC(C)C[C@H](NC(=O)[C@H](CCCCN)NC(=O)CNC(=O)[C@H](CC(C)C)NC(=O)[C@@H](NC(=O)[C@@H]1CSSC[C@H](N)C(=O)N[C@@H](CO)C(=O)N[C@@H](CC(N)=O)C(=O)N[C@@H](CC(C)C)C(=O)N[C@@H](CO)C(=O)N[C@@H]([C@@H](C)O)C(=O)N1)C(C)C)C(=O)N[C@@H](CO)C(=O)N[C@@H](CCC(N)=O)C(=O)N[C@@H](CCC(=O)O)C(=O)N[C@@H](CC(C)C)C(=O)N[C@@H](Cc1c[nH]cn1)C(=O)N[C@@H](CCCCN)C(=O)N[C@@H](CC(C)C)C(=O)N[C@@H](CCC(N)=O)C(=O)N[C@H](C(=O)N[C@@H](Cc1ccc(O)cc1)C(=O)N1CCC[C@H]1C(=O)N[C@@H](CCCNC(=N)N)C(=O)N[C@H](C(=O)N[C@@H](CC(N)=O)C(=O)N[C@H](C(=O)NCC(=O)N[C@@H](CO)C(=O)NCC(=O)N[C@H](C(=O)N1CCC[C@H]1C(N)=O)[C@@H](C)O)[C@@H](C)O)[C@@H](C)O)[C@@H](C)O` [standard salmon calcitonin, Salmon calcitonin], the “potency content of the standard salmon calcitonin” value was “greater than 4,000 IU/mg”.

The values above are taken from patent publication US4605514A, “Des-4-leucine-calcitonin” (Armour Pharmaceutical Company, priority 1984, dated 1986).
